Paper PMC11289891, “Selection and characterization of a peptide-based complement modulator targeting C1 of the innate immune system” (RSC Chemical Biology, 2024)
Read-outs that look alike come from different tables or passages of the source. Positions of bridges follow the written chain, without caps; N, C: chain ends. Non-standard residues stand in square brackets, D forms with d. Residues, ends and D or L forms follow the SMILES beside them. *: point of attachment. Biotin = O=C1N[C@H]2[C@H](CS[C@H]2CCCCC(=O)*)N1; Lys(N3) = [N-]=[N+]=NCCCC[C@H](N)C(=O)O

Experiments:
[1] = system: C5b-9 deposition by pooled IgG; test: Competition ELISA on pooled human IgG, C5b-9 detected; format: biochemical
Method: (§1) Materials, including buffers and blocking agent, were the same as for the activation assay, unless stated otherwise. Incubation and wash steps between added new components was kept identical to the section “Enzyme-linked immunosorbent assay (ELISA) for complement activation” above. To determine the competition with pooled human IgG (Sigma-Aldrich, USA), Maxisorb plates were coated with 10 μg mL^−1 of IgG pooled from human serum, incubated, washed and blocked with spermidine. Peptides were incubated with 1% normal human serum (pooled, Complement Technology) for at least 30 minutes before adding to the IgG coated plates. DMSO controls and no serum controls were added. Human serum with and without peptides was added to the plates and subsequent complement inhibition was determined by detecting the presence of C1q or C5b-9. Data shown in the graphs is normalized to the maximum signal of the DMSO control and the minimal signal of the no serum control. Absorption measurements at 415 were performed on a CLARIOstar microplate reader (BMG Labtech, Offenburg, Germany).

[2] = system: C1q binding to pooled IgG; test: Competition ELISA on pooled human IgG, C1q detected; details: peptide incubated with 1% human serum, pooled IgG-coated plate, two technical replicates
Method: as §1

C1q = biological target: T1, C1q (Homo sapiens, UniProt P02745+P02746+P02747); test: ELISA for complement activation: C1q recruitment from human serum by immobilised peptide; format: binding; details: for EC50: 1% human serum in RPMI, four-parameter fit
T1 construct: tissue Complement Technology, Inc; host or cells: normal human serum (pooled), 1% in RPMI medium
T1 sequence (P02745 23-245): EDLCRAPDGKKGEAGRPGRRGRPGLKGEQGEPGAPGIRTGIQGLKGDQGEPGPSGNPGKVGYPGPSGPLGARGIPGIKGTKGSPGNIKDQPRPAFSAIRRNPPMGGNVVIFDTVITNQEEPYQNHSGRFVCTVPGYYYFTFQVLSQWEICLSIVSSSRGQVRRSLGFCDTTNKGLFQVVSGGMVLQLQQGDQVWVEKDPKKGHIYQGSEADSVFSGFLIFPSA
T1 sequence (P02746 28-253): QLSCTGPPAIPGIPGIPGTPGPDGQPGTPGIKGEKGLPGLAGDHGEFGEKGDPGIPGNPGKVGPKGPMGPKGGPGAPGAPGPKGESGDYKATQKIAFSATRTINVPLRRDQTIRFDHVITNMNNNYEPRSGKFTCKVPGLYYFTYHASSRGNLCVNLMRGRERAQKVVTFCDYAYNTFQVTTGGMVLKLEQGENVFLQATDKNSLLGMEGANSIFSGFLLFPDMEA
T1 sequence (P02747 29-245): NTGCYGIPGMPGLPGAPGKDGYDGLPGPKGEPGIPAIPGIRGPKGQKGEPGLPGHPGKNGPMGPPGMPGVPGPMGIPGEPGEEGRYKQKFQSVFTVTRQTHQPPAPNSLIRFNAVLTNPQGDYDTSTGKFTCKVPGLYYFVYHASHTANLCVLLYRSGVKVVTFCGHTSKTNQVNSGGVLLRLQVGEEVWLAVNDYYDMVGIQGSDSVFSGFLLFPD
T1 sequence (P00736 18-705 partner): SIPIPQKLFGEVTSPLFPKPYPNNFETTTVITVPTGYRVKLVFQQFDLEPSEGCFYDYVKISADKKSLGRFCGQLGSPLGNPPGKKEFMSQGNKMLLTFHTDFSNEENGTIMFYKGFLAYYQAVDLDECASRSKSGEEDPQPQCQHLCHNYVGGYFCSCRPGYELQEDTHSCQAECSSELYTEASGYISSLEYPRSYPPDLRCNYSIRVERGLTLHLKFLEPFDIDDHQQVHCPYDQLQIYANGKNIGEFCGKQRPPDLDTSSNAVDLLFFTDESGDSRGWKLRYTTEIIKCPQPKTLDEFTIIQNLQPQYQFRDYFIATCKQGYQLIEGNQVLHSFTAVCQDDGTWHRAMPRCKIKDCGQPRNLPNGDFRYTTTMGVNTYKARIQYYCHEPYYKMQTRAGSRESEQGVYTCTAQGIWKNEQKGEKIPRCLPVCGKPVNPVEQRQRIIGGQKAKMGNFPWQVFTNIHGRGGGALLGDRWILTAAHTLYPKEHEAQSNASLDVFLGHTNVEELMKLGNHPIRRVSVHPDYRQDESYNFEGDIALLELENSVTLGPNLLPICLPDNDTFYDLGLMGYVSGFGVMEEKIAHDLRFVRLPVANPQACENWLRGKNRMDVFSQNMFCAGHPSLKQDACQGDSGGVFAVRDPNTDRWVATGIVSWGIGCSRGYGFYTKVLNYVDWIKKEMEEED
T1 sequence (P09871 16-688 partner): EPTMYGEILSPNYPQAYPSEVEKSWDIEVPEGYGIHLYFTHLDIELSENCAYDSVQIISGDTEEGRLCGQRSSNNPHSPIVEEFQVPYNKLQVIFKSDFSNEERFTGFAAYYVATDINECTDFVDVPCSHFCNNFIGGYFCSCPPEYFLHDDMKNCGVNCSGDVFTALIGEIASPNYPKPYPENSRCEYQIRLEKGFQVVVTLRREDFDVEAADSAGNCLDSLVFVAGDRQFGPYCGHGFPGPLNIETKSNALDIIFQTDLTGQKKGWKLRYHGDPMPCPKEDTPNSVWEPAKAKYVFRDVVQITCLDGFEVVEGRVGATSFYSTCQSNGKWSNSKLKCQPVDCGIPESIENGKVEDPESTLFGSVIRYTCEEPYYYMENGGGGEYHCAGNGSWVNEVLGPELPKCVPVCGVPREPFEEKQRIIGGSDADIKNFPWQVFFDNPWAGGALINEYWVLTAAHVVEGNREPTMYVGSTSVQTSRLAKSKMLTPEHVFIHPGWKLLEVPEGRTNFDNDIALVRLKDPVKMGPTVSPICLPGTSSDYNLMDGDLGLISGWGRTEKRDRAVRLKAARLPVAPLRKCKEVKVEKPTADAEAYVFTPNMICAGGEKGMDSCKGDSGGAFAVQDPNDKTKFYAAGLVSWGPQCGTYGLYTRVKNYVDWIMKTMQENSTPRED
Method: Maxisorb Nunc Immunoplates (Thermofisher Scientific, Massachusetts, USA) were coated with streptavidin (Thermofisher Scientific) at 10 μg mL^−1 in 0.1 M Na2CO3, 0.1 M NaHCO3 (coating buffer), pH 9.6 at 50 μL per well and allowed to incubate either at room temperature overnight, or 37 °C for 1 hour. Plates were washed with PBS with 0.05% tween-20 three times. For each following step, samples were incubated at 37 °C for 1 hour and subsequently washed with the PBS-T solution, we denote this as incubation and wash in the latter parts of the text. After streptavidin binding, wells were blocked with 100 μL of 0.1 M spermidine (Thermofisher Scientific) in distilled water incubated and washed. Then peptides were incubated in 50 μL PBS (as with all the following steps) with 0.05% Tween-20 (PBS-T) to create a peptide presenting surface and incubated and washed. In all activation assays, peptides are modified with a biotin to achieve binding to streptavidin. Note that in certain instances the peptides are initially modified with an azide. In such conditions a biotin-PEG4-DBCO (Jena Bioscience GmbH, Germany) was co-incubated with the peptides at 25 mol% excess of biotin linker to create a biotin modified peptide. This conjugation reaction took place in the plate. Hereafter the wells were incubated with 1% normal human serum (NHS) (Complement Technology, Inc., Texas, USA) in RPMI medium (Roswell Park Memorial Institute 1640 medium), then incubated and washed. Following these steps, complement components C1q or C5b-9 were detected. Primary Rabbit anti-C1q or Mouse anti C5b-9 (Dako, Denmark) was added to PBS, 0.05% Tween-20, 0.1% BSA (PBS-BT) in 1 : 2000 and 1 : 333 dilution, respectively, then incubated and washed. Next, goat anti-rabbit and anti-mouse antibodies (Dako, Denmark) modified with horseradish peroxidase (HRP) were diluted 1 : 5000 in PBS-T and added to the plates, then incubated and washed. To detect the HRP on the secondary antibody 2.5 mg mL^−1 ABTS (2′-azino-bis(3-ethylbenzothiazoline-6-sulfonic acid)) was added in citric acid buffer (0.15 M, pH 4.2) (ABTS buffer) containing 0.15 (v/v%) H2O2 was used and samples were incubated at room temperature for 30 minutes. Absorption measurements at 415 nm were performed on a CLARIOstar microplate reader (BMG Labtech, Offenburg, Germany).

CC[C@H](C)[C@@H]1NC(=O)[C@H](Cc2ccccc2)NC(=O)[C@H](CCC(N)=O)NC(=O)[C@H](CC(C)C)NC(=O)[C@H]([C@@H](C)O)NC(=O)[C@H](Cc2ccccc2)NC(=O)[C@@H]2CCCN2C(=O)[C@H](CC(=O)O)NC(=O)[C@@H]2CCCN2C(=O)[C@H](Cc2ccc(O)cc2)NC(=O)[C@H](Cc2ccccc2)NC(=O)[C@H]([C@@H](C)O)NC(=O)[C@H](C(C)C)NC(=O)[C@H]([C@@H](C)O)NC(=O)[C@@H](Cc2ccc(O)cc2)NC(=O)CSC[C@@H](C(=O)NCC(=O)N[C@@H](CO)C(=O)N[C@@H](CCCCNC(=O)CCCC[C@@H]2SC[C@@H]3NC(=O)N[C@@H]32)C(=O)NCC(=O)O)NC(=O)[C@H](C)NC1=O [inv-cL3] ({CH2CO}-[dY]TVTFYPDPFTLQFIACGSK(Biotin)G-OH; thioether N-17; C-terminus assumed)
IC50 ([1]; data of Fig. 6b, four-parameter fit, CI 1.01-2.13, R2 0.94, read-out: IC50, competition with IgG, Fig. S18 fit): 1.5 µM
Inhibition of C5b-9 deposition by pooled IgG (qualitative, rank) ([1]; peptide incubated with 1% human serum, pooled IgG-coated plate, two technical replicates): significantly worse than full-length cL3
Inhibition of C1q binding to pooled IgG [2]: minor inhibition of C1q binding to pooled IgG at high concentrations

CC[C@H](C)[C@@H]1NC(=O)[C@H](Cc2ccccc2)NC(=O)[C@H](CCC(N)=O)NC(=O)[C@H](CC(C)C)NC(=O)[C@H]([C@@H](C)O)NC(=O)[C@H](Cc2ccccc2)NC(=O)[C@@H]2CCCN2C(=O)[C@H](CC(=O)O)NC(=O)[C@@H]2CCCN2C(=O)[C@H](Cc2ccc(O)cc2)NC(=O)[C@H](Cc2ccccc2)NC(=O)[C@H]([C@@H](C)O)NC(=O)[C@H](C(C)C)NC(=O)[C@H]([C@@H](C)O)NC(=O)[C@H](Cc2ccc(O)cc2)NC(=O)CSC[C@@H](C(=O)NCC(=O)N[C@@H](CO)C(=O)N[C@@H](CCCCNC(=O)CCCC[C@@H]2SC[C@@H]3NC(=O)N[C@@H]32)C(=O)NCC(=O)O)NC(=O)[C@H](C)NC1=O [cL3-Bt] ({CH2CO}-YTVTFYPDPFTLQFIACGSK(Biotin)G-OH; thioether N-17)
EC50 (C1q; cL3-Bt titrated on streptavidin plate, technical duplicate on one plate (data of Fig. 3a), CI ND, R2 0.99, read-out: EC50 of C1q recruitment, Fig. S2 graph on the right): 6.2 µM
EC50 (C1q; cL3-Bt titrated on streptavidin plate, technical duplicate on one plate, CI 7.4-9.1, R2 0.99, read-out: EC50 of C1q recruitment, Fig. S2 graph in the middle): 8.2 µM
EC50 (C1q; cL3-Bt titrated on streptavidin plate, technical duplicate on one plate, CI ND, R2 0.98, read-out: EC50 of C1q recruitment, Fig. S2 graph on the left): 2.68 µM

CC[C@H](C)[C@@H]1NC(=O)[C@H](Cc2ccccc2)NC(=O)[C@H](CCC(N)=O)NC(=O)[C@H](CC(C)C)NC(=O)[C@H]([C@@H](C)O)NC(=O)[C@H](Cc2ccccc2)NC(=O)[C@@H]2CCCN2C(=O)[C@H](CC(=O)O)NC(=O)[C@@H]2CCCN2C(=O)[C@H](Cc2ccc(O)cc2)NC(=O)[C@H](Cc2ccccc2)NC(=O)[C@H]([C@@H](C)O)NC(=O)[C@H](C(C)C)NC(=O)[C@H]([C@@H](C)O)NC(=O)[C@H](Cc2ccc(O)cc2)NC(=O)CSC[C@@H](C(=O)NCC(=O)N[C@@H](CO)C(=O)N[C@@H](CCCCN=[N+]=[N-])C(=O)NCC(=O)O)NC(=O)[C@H](C)NC1=O [cL3-Az] ({CH2CO}-YTVTFYPDPFTLQFIACGS[Lys(N3)]G-OH; thioether N-17)
EC50 (C1q; cL3-Az conjugated to biotin-DBCO linker on streptavidin plate, 1 hour 37 °C, single technical replicate, CI 5.2-7.4, R2 0.99, read-out: EC50 of C1q recruitment, Fig. S4): 6.2 µM
EC50 of C1 recruitment compared with the biotinylated variant (C1q; cL3-Az via biotin-DBCO linker on streptavidin plate, 1% human serum): comparable to the biotinylated variant
